Patent US12157713B2, “Conjugated oligoelectrolytes as antimicrobial agents” (Nanyang Technological University, priority 2018, dated 2024)

What was measured:
[1] = system: Pseudomonas aeruginosa (PAO1) biofilm; test: Anti-biofilm assay (MBEC plate, crystal violet); format: cell-based; conditions: P. aeruginosa PAO1 biofilm, 1 hour challenge in M9GC
Method: Pseudomonas aeruginosa (PAO1) was grown in Luria-Bertani (LB) broth under shaking (200 rpm) at 37° C. for 16-18 hours. The overnight culture was diluted to 1:200 in M9GC media (M9 medium supplemented with glucose and casamino acids), and 200 μL of diluted culture was added to each well of MBEC plate (Innovotech, Canada). After incubating at 37° C. for 5 hours under shaking (200 rpm), biofilm was formed on the pegs of the MBEC plate. The pegs were then rinsed with 1× phosphate buffered saline (PBS) solution (200 μL per well), and exposed to a two-fold dilution series of COE in M9GC media (200 μL per well). The challenge plate was incubated at 37° C. for 1 hour under shaking (200 rpm), and then the pegs were washed using 200 μL PBS before being dipped into 180 μL 0.1 wt. % crystal violet aqueous solution. After incubating at room temperature for 15 minutes, the pegs were rinsed with PBS twice and transferred to a plate containing 200 μL absolute ethanol in each well for 15 minutes. The biofilm mass was quantified by measuring the absorption of crystal violet/ethanol solution at 550 nm. The minimum biofilm dispersal concentration (MBDC) values were determined as the lowest COE concentration at which biofilm attached on the peg was completely dispersed. The results were repeated in triplicate.

[2] = system: multidrug-resistant Gram-negative bacteria; conditions: literature (Falagas et al. 2005); cited from earlier work
E. coli K12 = test: MIC by broth microdilution against E. coli K12; format: cell-based; conditions: Escherichia coli, K12; broth microdilution, MHB, 18 hrs; read-out: MIC against E. coli K12
Method: (§1) The respective minimum inhibition concentration (MIC) of each COE molecule was determined using a broth microdilution method. Briefly, COEs were diluted via a 2-fold dilution series in 100 μL of either Muller Hinton Broth (MHB) for E. coli and S. aureus or Brain Heart Infusion Broth (BHI) for E. faecalis in a 96-well plate to achieve the desired final concentration. Subsequently, each well was inoculated with 100 μL of 1×10^6 colony forming units (CFU) mL^−1 of the respective microorganism in MHB for E. coli or BHI for E. faecalis to achieve an inoculum density of 5×10^5 CFU mL^−1. The plates were then incubated at 37° C. with shaking (200 rpm) for 18 hrs. […] The results were obtained in triplicate.
The MIC values of COE-D4, COE-D6 and COE-D8 against the reference strain E. coli K12, pathogenic E. coli UT189, and the Gram positive pathogen Enterococcus faecalis OG1RF were determined using a broth microdilution method as described in the general method above. The MICs for E. coli K12 were determined to be 128, 16, and 4 μg mL^−1 for COE-D4, COE-D6, and COE-D8, respectively (FIG. 5a). […] This is not surprising as these two organisms differ in the capsular polysaccharides that they expressed, which are known to hinder the uptake of antimicrobials and mitigate their potency (M. A. Campos, et al., Infect. Immun. 2004, 72, 7107-7114). A K-type capsid comprising α2-8-linked sialic acid is excreted by UT189 and is known to be an important virulence factor for this organism (C. Whitfield, et al., Mol. Microbiol. 1999, 31, 1307-1319; G. G. Anderson, et al., Infect. Immun. 2010, 78, 963-975).

[3] = system: Staphylococcus aureus 25923; test: MIC against S. aureus 25923; format: cell-based
Method: as §1
The antimicrobial effects of COE-D62N and COE-D82N were also tested on the Gram-positive Staphylococcus aureus 25923 and Methicillin-resistant Staphylococcus aureus(MRSA BAA-40), in comparison with vancomycin (FIG. 5b).

[4] = system: Staphylococcus aureus MRSA ATCC 43300; test: Single-dose growth inhibition, Sa; format: cell-based; conditions: 32 μg/mL single dose, n=2, read-out: Growth inhibition Sa
Method: (§2) Inhibition of bacterial growth was determined by measuring the absorbance at 600 nm (OD600), using a Tecan M1000 Pro monochromator plate reader. Growth inhibition was calculated for each well, relative to the reference growths determined from a negative control (media only) and positive control (bacteria without inhibitors) incubated in the same plate. A single dose of 32 μg/mL of COE (final concentration) was used for each test.
(§3) Percentage growth inhibition of an individual sample was calculated based on growth in a reference well determined from negative controls (media only) and positive controls (bacterial/fungal media without inhibitors). Negative inhibition values indicate that the growth rate (or OD600) is higher compared to the reference growth (bacteria/fungi only, set to 0% inhibition). The growth rates for all bacteria and fungi may vary at −/+10%, which were within the reported normal distribution of bacterial/fungal growth. Any significant variations (or outliers/hits) were identified by the modified Z-Score, and the active compounds were selected by a combination of inhibition values and Z-Score.
(§4) A M(i) value of >|2.5| (absolute) would classify the sample as outliers or hits. Active samples were denoted as compounds with inhibition values equal to or above 80% and absolute Z-Score above |2.5| for either replicate (n=2 on different plates). Partial active samples were denoted as compounds with inhibition values from 50% to <80%, or absolute Z-Score below |2.5|.

[5] = system: Klebsiella pneumoniae MDR ATCC 700603; test: Single-dose growth inhibition, Kp; format: cell-based; conditions: ATCC700603, 32 μg/mL single dose, n=2, read-out: Growth inhibition Kp
Method: as §2, §3, §4

[6] = system: Escherichia coli FDA control ATCC 25922; test: Single-dose growth inhibition, Ec; format: cell-based; conditions: ATCC25922, 32 μg/mL single dose, n=2, read-out: Growth inhibition Ec
Method: as §2, §3, §4

[7] = system: Pseudomonas aeruginosa ATCC 27853; test: Single-dose growth inhibition, Pa; format: cell-based; conditions: ATCC27853, 32 μg/mL single dose, n=2, read-out: Growth inhibition Pa
Method: as §2, §3, §4

[8] = system: Acinetobacter baumannii ATCC 19606; test: Single-dose growth inhibition, Ab; format: cell-based; conditions: ATCC19606, 32 μg/mL single dose, n=2, read-out: Growth inhibition Ab
Method: as §2, §3, §4

[9] = system: Candida albicans ATCC 90028; test: Single-dose growth inhibition, Ca; format: cell-based; conditions: ATCC90028, 32 μg/mL single dose, n=2, read-out: Growth inhibition Ca
Method: (§5) Growth inhibition of C. albicans was determined by measuring the absorbance at 530 nm (OD530), while the growth inhibition of C. neoformans was determined by measuring the difference in absorbance between 600 and 570 nm (OD600-570), after the addition of resazurin (0.001 wt. % final concentration) and incubation at 35° C. for additional 2 hrs. The absorbance was measured using a Biotek Synergy HTX plate reader. The relative growth inhibition was calculated for each well, relative to that determined from a negative control (media only) and positive control (bacteria without inhibitors) on the same plate as references. A single dose of 32 μg/mL of COE (final concentration) was used for each test.
as §3, §4

[10] = system: Cryptococcus neoformans var. grubii H99; ATCC 208821; test: Single-dose growth inhibition, Cn; format: cell-based; conditions: ATCC208821, 32 μg/mL single dose, n=2, read-out: Growth inhibition Cn
Method: as §5, §3, §4

[11] = system: organism classes (Gram-negative, Gram-positive and fungi); test: Single-dose screening summary by organism class; format: cell-based; conditions: 32 μg/mL; 0 = no activity
Method: as §3
Z-Score analysis was carried out to investigate outliers or hits among the samples. The Z-Score was calculated based on the sample population using a modified Z-Score method which accounts for possible skewed sample population. The modified method uses median and MAD ([…]) instead of average and standard deviation, and a scaling factor (Iglewicz, B. & Hoaglin, D. C. Volume 16: How to Detect and Handle Outliers. The ASQC Basic Reference in Quality Control: Statistical Techniques, 1993). The equation to calculate the modified Z-Score value is as follow: […]
as §4

E. faecalis = conditions: literature (Tran et al. 2013); cited from earlier work

Compound: Colistin
- Minimum biofilm dispersal concentration [1]: 4 µg/mL
- MIC against multidrug-resistant Gram-negative bacteria (in general) [2]: ≤ 4 µg/mL

Compound: O=C(O)c1cn(C2CC2)c2cc(N3CCNCC3)c(F)cc2c1=O [Ciprofloxacin]
- Minimum biofilm dispersal concentration [1]: >512 µg/mL

Compound: C[N+](C)(C)CC[N+](C)(C)CCCCCCOc1ccc(/C=C/c2ccc(/C=C/c3ccc(OCCCCCC[N+](C)(C)CC[N+](C)(C)C)cc3)cc2)cc1 [COE-T62]
- MIC (E. coli K12): 16 µg/mL
- MIC [3]: 2 µg/mL
- inhibition at 32 µg/mL [4]: > 80%
- inhibition at 32 µg/mL [5]: < 50%
- inhibition at 32 µg/mL [6]: > 80%
- inhibition at 32 µg/mL [7]: < 50%
- inhibition at 32 µg/mL [8]: < 50%
- inhibition at 32 µg/mL [9]: > 80%
- inhibition at 32 µg/mL [10]: > 80%
- Activity: number of organism classes the compound has been found active against [11]: 3
- Minimum biofilm dispersal concentration [1]: 8 µg/mL

Compound: Gentamicin
- Minimum biofilm dispersal concentration [1]: >512 µg/mL

Compound: CCCCCCCCCC(=O)N[C@@H](Cc1c[nH]c2ccccc12)C(=O)N[C@H](CC(N)=O)C(=O)N[C@@H](CC(=O)O)C(=O)N[C@@H]1C(=O)NCC(=O)N[C@@H](CCCN)C(=O)N[C@@H](CC(=O)O)C(=O)N[C@H](C)C(=O)N[C@@H](CC(=O)O)C(=O)NCC(=O)N[C@H](CO)C(=O)N[C@@H]([C@H](C)CC(=O)O)C(=O)N[C@@H](CC(=O)c2ccccc2N)C(=O)O[C@@H]1C [daptomycin]
- MIC against E. faecalis in brain heart infusion media (E. faecalis): around 3 μg mL^−1

Compound: CC(C)(O/N=C(\C(=O)N[C@@H]1C(=O)N2C(C(=O)[O-])=C(C[n+]3ccccc3)CS[C@H]12)c1csc(N)n1)C(=O)O [Ceftazidime]
- Minimum biofilm dispersal concentration [1]: >512 µg/mL
